# From article PMC5658359, “A potent small-molecule inhibitor of the DCN1-UBC12 interaction that selectively blocks cullin 3 neddylation” (Nature Communications, 2017)
# Key:
# [1] = biological target: T1, DCN5 (Homo sapiens, UniProt Q9BTE7); experiment: Biochemical assays, binding of 47 to recombinant DCN5 (method not specified); details: concentrations up to 10 µM
# T1 construct: DCN2 (residues 62–259), DCN3 (residues 86–304), DCN4 (residues 102–292) and DCN5 (residues 47–237); His6-TEV (N, cleaved yes); made in house; host or cells: Rosetta2 cells (E. coli)
# T1 sequence (Q9BTE7 47-237): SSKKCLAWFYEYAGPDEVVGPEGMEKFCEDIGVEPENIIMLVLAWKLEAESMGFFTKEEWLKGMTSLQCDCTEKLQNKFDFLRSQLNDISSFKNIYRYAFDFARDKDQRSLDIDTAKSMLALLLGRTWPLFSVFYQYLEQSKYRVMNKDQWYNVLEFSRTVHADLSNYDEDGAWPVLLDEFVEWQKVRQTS
# [2] = test system: cellular DCN1 and DCN2 proteins; experiment: Biotinylated protein pull-down assay, KYSE70 cell lysates; type: binding
# Description: (§1) Complexes formed between the biotinylated DI inhibitor and its targeted proteins were recovered by incubation with Streptavidin-agarose beads (Thermo Scientific Pierce, Waltham, Massachusetts). DCN1 and DCN2 proteins associated with beads were eluted by heating and detected by immunoblotting.
# [3] = biological target: DCN1 (Homo sapiens, UniProt Q96GG9); experiment: Biotinylated protein pull-down assay, KYSE140 cell lysates; type: binding; set-up: endogenous in cells; host or cells: KYSE70; KYSE140
# Description: as §1
# GAPDH was used as a loading control. […]
# [4] = biological target: T2, DCN3 (Homo sapiens, UniProt Q8IWE4); experiment: Biochemical assays, binding of 47 to recombinant DCN3 (method not specified); details: concentrations up to 10 µM
# T2 construct: DCN2 (residues 62–259), DCN3 (residues 86–304), DCN4 (residues 102–292) and DCN5 (residues 47–237); His6-TEV (N, cleaved yes); made in house; host or cells: Rosetta2 cells (E. coli)
# T2 sequence (Q8IWE4 86-304): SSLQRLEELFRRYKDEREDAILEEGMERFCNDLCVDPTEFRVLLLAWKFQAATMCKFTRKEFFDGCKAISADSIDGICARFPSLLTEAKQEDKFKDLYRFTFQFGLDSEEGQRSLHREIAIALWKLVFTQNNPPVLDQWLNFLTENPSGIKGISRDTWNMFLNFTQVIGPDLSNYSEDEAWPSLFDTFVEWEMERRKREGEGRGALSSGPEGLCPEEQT
# [5] = biological target: T3, DCN2 (Homo sapiens, UniProt Q6PH85); experiment: Competitive FP binding assay with probe 46, DCN2
# T3 construct: DCN2 (residues 62–259), DCN3 (residues 86–304), DCN4 (residues 102–292) and DCN5 (residues 47–237); His6-TEV (N, cleaved yes); made in house; host or cells: Rosetta2 cells (E. coli)
# Description: The FP competitive binding experiments were performed to determine the binding affinities of all synthesized DCN1 inhibitors. […] Serial dilutions of DCN1 or DCN2 protein were mixed with the probe (46) to a final volume of 200 μl in the assay buffer (100 mM phosphate buffer, pH = 6.5, with 0.02% Tween-20 and 2% DMSO). The final probe concentration was 5 nM in both DCN1 and DCN2 assays. Plates were incubated at room temperature for 30 min with gentle shaking for equilibrium.
# The IC50 and Ki values of compounds were determined in competitive binding experiments. Mixtures of compounds in DMSO (4 μl) and of pre-incubated protein/probe complex solution (196 μl) in the assay buffer were added into assay plates that were incubated at room temperature for 30 min with gentle shaking. Final concentrations of DCN1 protein and fluorescent probe (46) were 50 and 5 nM, respectively. […] FP values were measured as described above. IC50 values were determined by nonlinear regression fitting of the competition curves using the dose response inhibition equation (four parameters, variable slopes) included in the Prism/GraphPad software. K i values were calculated using the methods described earlier.
# [6] = biological target: T4, DCN4 (Homo sapiens, UniProt Q92564); experiment: Biochemical assays, binding of 47 to recombinant DCN4 (method not specified); details: concentrations up to 10 µM
# T4 construct: DCN2 (residues 62–259), DCN3 (residues 86–304), DCN4 (residues 102–292) and DCN5 (residues 47–237); His6-TEV (N, cleaved yes); made in house; host or cells: Rosetta2 cells (E. coli)
# T4 sequence (Q92564 102-292): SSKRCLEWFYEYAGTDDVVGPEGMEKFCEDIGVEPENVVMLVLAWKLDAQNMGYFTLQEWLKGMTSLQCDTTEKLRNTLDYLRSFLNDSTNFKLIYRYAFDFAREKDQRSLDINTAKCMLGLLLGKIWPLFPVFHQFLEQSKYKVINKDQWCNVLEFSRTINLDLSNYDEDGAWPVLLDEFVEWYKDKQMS
# [7] = biological target: T1, DCN5; experiment: Label-free BLI assay, DCN5; type: binding; details: concentrations up to 10 µM
# [8] = test system: NRF2 mRNA; experiment: qRT-PCR of NRF2 mRNA in THLE2 cells; type: cell-based; details: THLE2, 10 µM
# Source text: Total RNA in treated cells was isolated with the RNeasy Mini Kit (Qiagen, Germantown, MD). RNA was reverse transcribed into complementary DNA (cDNA) using high capacity RNA-to-cDNA kit (Applied Biosystems, Carlsbad, California). […] GAPDH was used as an internal reference. […] Error bars correspond to SD from three independent experiments.
# [9] = biological target: T2, DCN3; experiment: Label-free BLI assay, DCN3; type: binding; details: concentrations up to 10 µM
# [10] = biological target: T4, DCN4; experiment: Label-free BLI assay, DCN4; type: binding; details: concentrations up to 10 µM
# Chain of DCN1 (Q96GG9 whole entry): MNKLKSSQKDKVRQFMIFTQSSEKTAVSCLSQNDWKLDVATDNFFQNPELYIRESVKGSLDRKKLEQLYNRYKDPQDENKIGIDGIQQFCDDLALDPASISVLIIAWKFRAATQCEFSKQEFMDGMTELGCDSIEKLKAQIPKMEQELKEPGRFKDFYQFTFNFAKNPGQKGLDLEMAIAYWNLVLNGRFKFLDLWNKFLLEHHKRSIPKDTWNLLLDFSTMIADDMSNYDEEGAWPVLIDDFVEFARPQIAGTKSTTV
# T3 sequence (Q6PH85 62-259): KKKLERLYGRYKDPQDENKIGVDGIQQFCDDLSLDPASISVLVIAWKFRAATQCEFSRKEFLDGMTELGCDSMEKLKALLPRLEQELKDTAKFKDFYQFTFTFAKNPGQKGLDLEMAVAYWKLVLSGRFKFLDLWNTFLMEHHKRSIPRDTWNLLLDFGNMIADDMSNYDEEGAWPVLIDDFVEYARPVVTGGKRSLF
SMILES,binding to recombinant DCN5 (in words) [1],pull-down of cellular DCN1 and DCN2 proteins (in words) [2],pull-down of DCN1 protein (in words) [3],binding to recombinant DCN3 (in words) [4],Ki [5] [nM],binding to recombinant DCN4 (in words) [6],binding to DCN5 (in words) [7],mRNA level of NRF2 (in words) [8],binding to DCN3 (in words) [9],binding to DCN4 (in words) [10]
CCC(=O)NC(Cc1nc2ccc(C(C)C)cc2s1)C(=O)NC(CNC(=O)C1CCN(CCOCCOCCOCCNC(=O)CCCCC2SCC3NC(=O)NC32)CC1)C1CCCCC1 (stereo not shown) [compound 47],no appreciable binding,efficiently pulls down,pulls down DCN1 protein,no appreciable binding,3.9,no appreciable binding,,,,
CCC(=O)N[C@H](Cc1nc2ccc(C(C)C)cc2s1)C(=O)N[C@@H](CNC(=O)CCN1CCOCC1)C1CCCCC1 [DI-591DD],,,,,,,no appreciable binding,no effect,no appreciable binding,no appreciable binding
